Values of other authors as cited in US9561187B1, “Sustained release metoprolol formulations” (CMAX Technologies, Inc., priority 2014, dated 2017).
Counter-ions that a name gives are not always drawn. Like-named read-outs stand apart in the source and are kept apart here.

What was measured:
[1] = immediate-release tartrate vs extended-release succinate

Row | Solubility (in dichloromethane and 2-propanol) | Solubility (in ethanol) | Solubility (in ethyl-acetate, acetone, diethylether and heptane) | Solubility (in methanol) | Solubility (in water) | Solubility (in acetone) | Solubility (in ether) | Solubility (in methylene chloride, in chloroform, and in alcohol) | More bioavailable than metoprolol succinate (more drug is absorbed) [1] | Compound
1 | slightly soluble | sparingly soluble | practically insoluble | soluble | freely soluble | – | – | – | – | COCCc1ccc(OCC(O)CNC(C)C)cc1 (racemic) [Metoprolol succinate, (±)1(isopropylamino)-3-[p-(2-methoxyethyl)phenoxy]-2-propanol succinate (2:1) (salt)]
2 | – | – | – | – | very soluble | slightly soluble | insoluble | freely soluble | at least 30% | COCCc1ccc(OCC(O)CNC(C)C)cc1 (racemic) [Metoprolol tartrate, (±)-1-(Isopropylamino)-3-[p-(2-methoxyethyl)phenoxy]-2-propanol L-(+)-tartrate (2:1) salt]
